Experimental data reported in the NIST ThermoML archive (doi:10.1021/je8007606).

Test: excess molar enthalpy (molar enthalpy of mixing); xn = mol fraction of the nth substance listed
Settings: 298.15 K, 101 kPa, Liquid, Calvet calorimetry

CCCCCCCCC [nonane] + CCCO
Settings | excess molar enthalpy [kcal/mol]
x2 = 0.0794 | 0.118
x2 = 0.1401 | 0.144
x2 = 0.2595 | 0.17
x2 = 0.3588 | 0.174
x2 = 0.441 | 0.173
x2 = 0.5192 | 0.165
x2 = 0.5829 | 0.154
x2 = 0.7046 | 0.129
x2 = 0.7517 | 0.117
x2 = 0.7992 | 0.1
x2 = 0.8361 | 0.086
x2 = 0.878 | 0.0674
x2 = 0.911 | 0.0521
x2 = 0.9469 | 0.0332
x2 = 0.9689 | 0.0206
